Source: ChEMBL document CHEMBL2074543, “Interactions of cationic drugs and cardiac glycosides at the hepatic uptake level: studies in the rat in vivo, isolated perfused rat liver, isolated rat hepatocytes and oocytes expressing oatp2” (Arch Pharm Res, 2002)

Molecular target: T1, Solute carrier organic anion transporter family member 1A4 (Rattus norvegicus, UniProt O35913)
T1 sequence (O35913 whole entry): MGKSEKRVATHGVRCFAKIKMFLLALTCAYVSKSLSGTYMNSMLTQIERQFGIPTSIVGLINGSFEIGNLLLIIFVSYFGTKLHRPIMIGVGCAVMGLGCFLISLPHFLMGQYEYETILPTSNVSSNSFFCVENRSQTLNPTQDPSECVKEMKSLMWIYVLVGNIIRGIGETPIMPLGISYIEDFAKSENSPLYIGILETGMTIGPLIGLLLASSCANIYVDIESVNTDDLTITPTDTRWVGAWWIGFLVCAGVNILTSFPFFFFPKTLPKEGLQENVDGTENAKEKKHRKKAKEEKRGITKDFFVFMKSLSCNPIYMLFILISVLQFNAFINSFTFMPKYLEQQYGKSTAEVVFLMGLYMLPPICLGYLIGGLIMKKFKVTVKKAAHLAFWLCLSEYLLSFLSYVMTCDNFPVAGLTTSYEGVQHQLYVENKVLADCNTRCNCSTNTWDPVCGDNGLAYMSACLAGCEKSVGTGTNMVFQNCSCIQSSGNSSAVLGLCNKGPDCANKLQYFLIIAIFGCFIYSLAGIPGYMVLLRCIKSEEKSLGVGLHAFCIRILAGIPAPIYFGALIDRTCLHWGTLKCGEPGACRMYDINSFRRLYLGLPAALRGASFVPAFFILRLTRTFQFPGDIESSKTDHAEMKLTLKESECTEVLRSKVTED
Test: TP_TRANSPORTER: inhibition of Rocuronium uptake in Xenopus laevis oocytes
Assay type: functional, cell-based
Settings: oocyte

CCCC[N+](C)(CCCC)CCCC [TRIBUTYLMETHYLAMMONIUM]
Activity: is not an inhibitor [-]

CC[N+](C)(CC)CCNC(=O)c1ccc(N=[N+]=[N-])cc1.[I-] [AZIDOPROCAINAMIDE METHOIODIDE]
Activity: is not an inhibitor [-]
